For this test, the system named is Plasmodium falciparum. Description: GSK_TCMDC: Inhibition of Plasmodium falciparum 3D7 in whole erythrocytes, using parasite LDH activity as an index of growth. Type of test: functional, organism-based. The settings on record: Plasmodium falciparum, 3D7.

In ChEMBL document CHEMBL1157539, “Thousands of chemical starting points for antimalarial lead identification” (Nature, 2010) one finds XC50 data, which are given here for 87 molecules.

Each structure is given as a SMILES string.

Take `O=C(c1cc(C(=O)Nc2ccccc2F)c(=O)n(-c2ccccc2F)c1)c1cc(Cl)ccc1O`: the XC50 is 705 nM.
The same measure for `COc1ccc(CNCc2ccc(F)cc2)cc1-c1ccc(S(=O)(=O)NCCN2CCCC2)c(C)c1`: 734 nM; for `COc1ccc(NC(=O)[C@H](Cc2ccccc2)Nc2cc(C)nc(NCCc3ccccn3)n2)cc1`: 834 nM.
For `N#Cc1ccc(-c2nc3c(N4CCCC4)cccc3n2CCNCc2ccccc2)cc1` the value was 593 nM.
In turn, `O=C(N[C@@H](CC1CCCCC1)C(=O)NCCN1CCCCC1)c1ccc(O)c(-c2cccc(C(F)(F)F)c2)c1` yielded an XC50 of 831 nM.
The same measure for `CN1CCCC1CCCOC(=O)c1ccc(N)cc1` (configuration not stated): 916 nM; for `O=S(=O)(c1cccc(Cl)c1F)N(CCC(O)(C(F)(F)F)C(F)(F)F)Cc1cccc(O)c1`: 918 nM; for `CCN(CC)CCN(Cc1ccc(-c2ccc(C(F)(F)F)cc2)cc1)C(=O)Cn1c(CCc2ccc(F)c(F)c2F)nc(=O)c2ccc(F)cc21`: 736 nM.
For the molecule `COc1ccc(NC(=O)Nc2cccc(-c3cccc(-c4nc5cccc(C)c5[nH]4)c3)c2)cc1`, the XC50 was 400 nM.
As to `COc1cccc(C(=O)Nc2ccc(Nc3nc(C)cc(N(C)C)n3)cc2)c1OC`, the XC50 is 1020 nM.
On to `CCOc1ccc(N2C(N)=NC(N)=NC2(C)C)cc1`, for which the XC50 was found to be 259 nM.
`COc1cccc(-c2ccc(C(=O)NC3CCN(Cc4ccc(N(C)C)cc4)CC3)s2)c1` yielded an XC50 of 1390 nM.
`COc1ccc2ncc(F)c(CCN3CCC(NCc4cc(OC)c5c(c4)OCCO5)CC3)c2n1` came in with an XC50 of 572 nM.
As to `CC(C)(CN)c1nc(-c2ccc(Cl)c(O)c2)c(-c2ccnc(N)n2)[nH]1`, the XC50 stood at 981 nM.
The same measure for `Oc1ccc(Br)cc1C(O)CNCc1ccccc1OCc1ccccc1` (configuration not stated): 167 nM; for `CNC(=O)c1cnc(Nc2ccc(OCC(O)CN(C)C)cc2)nc1Nc1cccc(OC)c1` (configuration not stated): 319 nM; for `Clc1ncccc1-c1nc(NCCC(c2ccccc2)c2ccccc2)no1`: 1000 nM.
The same measure for `O=C(Nc1cccc(-c2ccc(CN3CCCC3)cc2)c1)c1ccc(Cl)cc1`: 427 nM.
`O=C(/C=C/c1ccc(Cl)c(Cl)c1)N1CCC(CN2CCC(c3c[nH]c4ccncc34)CC2)CC1`: the XC50 is 733 nM.
With `CC(NC(C)c1cccc(Cl)c1)C(=O)Nc1cc(C(F)(F)F)ccc1N1CCOCC1` (configuration not stated), the XC50 worked out at 1090 nM.
The same measure for `Cc1cc(C2NC(=O)c3ccccc3N2)c(C)n1-c1ccc2c(c1)OCO2` (configuration not stated): 731 nM; for `FC(F)(F)c1ccc2[nH]c(-c3ccc(-c4cccc(CNCC5CCCO5)c4)cc3)nc2c1` (configuration not stated): 250 nM; for `CCOC(=O)C1=C(C)NC(C)=C(C(=O)OCC)C1(C(=O)OCc1ccccc1)c1cccc(C(F)(F)F)c1`: 1230 nM.
For `Cc1cccc2nc(-c3cccc(-c4cccc(C(=O)NCCN5CCCC5)c4)c3)[nH]c12` the value was 833 nM; for `O=c1[nH]ccc2nc(N[C@@H]3CCNC3)nc(Nc3cc(Cl)cc(Cl)c3)c12`, 738 nM.
`CCOc1ccc2nc(N(CCCn3ccnc3)C(=O)C=Cc3cccs3)sc2c1` registered an XC50 of 777 nM.
`COc1ccc(Cl)cc1NC(=O)Nc1ccc2c(c1)CCN(C1CCC1)CC2` showed an XC50 of 814 nM.
For `COc1c(C2CCN(CCCCNC(=O)c3ccc(-c4ccc(Cl)cc4)cn3)CC2)ccc2c1CCCC2` the value was 912 nM; for `COc1ccc(CNC2Cc3ccccc3C2)cc1-c1ccc(S(=O)(=O)NCc2ccccc2)s1`, 832 nM.
The same measure for `O=C(Nc1ccc(OC2CCN(Cc3ccc(F)cc3)CC2)c(Cl)c1)c1cccs1`: 318 nM.
In turn, `Cn1nccc1C(=O)NCCNCc1ccc(-c2cccc(-c3nc4cc(C(F)(F)F)ccc4[nH]3)c2)cc1` returned an XC50 of 117 nM.
Molecule `O=C(Nc1ccc(-c2nc3ccccc3[nH]2)cc1)c1cccc(S(=O)(=O)N2CCOCC2)c1` had an XC50 of 902 nM.
For `O=C1COc2ccccc2N1CCN1CCC(NCc2ccc(-c3cccs3)cc2)CC1` the value was 1430 nM; for `O=C(Nc1cccc(C(F)(F)F)c1)c1cccc(S(=O)(=O)NC2CCCN(CC3CCCCC3)C2)c1` (configuration not stated), 857 nM; for `Cc1cc(OCCCn2ccnc2)ccc1-c1csc(/N=C(\N)NCc2ccccc2)n1`, 878 nM.
In turn, `Cc1nc(-c2cccc(C(=O)Nc3cnc4ccccc4c3)c2)no1` registered an XC50 of 1160 nM.
Molecule `c1ccc2[nH]c(-c3ccc(-c4ccc(CN5CCN(c6ccncc6)CC5)cc4)cc3)nc2c1` had an XC50 of 164 nM.
In the case of `Cc1cccc(NC(=O)NCc2ccccc2)n1`, the XC50 came out at 944 nM.
For `COc1ccc2nccc(N3CCC(CCNCc4ccc5c(n4)NC(=O)CS5)CC3)c2n1` the value was 227 nM.
The same measure for `COc1ccc(Cl)c(CC2c3cc(O)c(Cl)cc3CCN2C)c1` (configuration not stated): 695 nM; for `COc1ccccc1N1CCN(CCCCN(C(=O)Nc2cccc(Cl)c2)C(=O)Nc2cccc(Cl)c2)CC1`: 707 nM.
`Cc1cc(NCc2ccc(F)cc2)nc2cc(O)ccc12` came in with an XC50 of 762 nM.
In turn, `COc1cccc(C(=O)NCCOc2ccccc2)c1Oc1ccccc1` registered an XC50 of 918 nM.
In turn, `Cc1cccc2nc(-c3cccc(-c4ccc(NC(=O)c5ccncc5)cc4)c3)[nH]c12` had an XC50 of 497 nM.
The same measure for `N#Cc1ccc(-c2ccc(C(=O)NCCCCN3CCC(c4ccc5c(c4OCc4ccncc4)CCCC5)CC3)cc2)cc1`: 757 nM; for `Nc1c(Cl)cc(C(O)CNCCCCCCCCCc2ccccn2)cc1Cl` (configuration not stated): 863 nM.
For `C[C@@H](CC1CCCCC1)NCc1cccc(NS(=O)(=O)c2ccc(O)c(-c3ccno3)c2)c1` the value was 376 nM.
For `CC(=O)Nc1cccc(-c2cnc(N)c3cc(-c4ccc5c(c4)OCO5)ccc23)c1` the value was 491 nM; for `CCOC(=O)c1c(-c2ccccc2)c(C(=O)OCC)n2ccccc12`, 614 nM; for `CCCCCCCn1c2c(c(=N)c3c1CCC3)CCCC2`, 102 nM.
As for `Cn1cncc1C(=O)Nc1ccc(-c2ccc(-c3nc4cc(C(F)(F)F)ccc4[nH]3)cc2)cc1`, the XC50 turned out to be 560 nM.
Take `CCOC(=O)c1cccc(NC(=O)Nc2cccc(-c3ncc(OCCCN)c4c3nc(-c3nonc3N)n4CC)c2)c1`: the XC50 is 894 nM.
As to `NC(=O)c1cccc(C(=O)Nc2cccc(-c3csc(-c4nc5ccccc5[nH]4)c3)c2)c1`, the XC50 was found to be 133 nM.
Molecule `Cc1cc(C(F)(F)F)n2nc(C3CCN(Cc4cc(C)c(O)c(C)c4)C3)cc2n1` (configuration not stated) displayed an XC50 of 758 nM.
For `COCCCNC(=O)C1CCN(C(c2ccc(Cl)cc2)c2ccc(Cl)cc2)CC1` the value was 920 nM.
The same measure for `O=C(CC1CCCC1)Nc1ccc2c(c1)CCC2`: 868 nM; for `CCn1cc(-c2cc(C(=O)Nc3ccc(OC)cc3C)c3ccccc3n2)c(C)n1`: 975 nM.
Regarding `O=C(N[C@@H](Cc1ccccc1)C(=O)NCc1cccc(C(F)(F)F)c1)c1ccc(O)c(-c2ccc(Cl)c(Cl)c2)c1`, the XC50 worked out at 696 nM.
The same measure for `CN1CCN(Cc2c(O)ccc3c(=O)c(Oc4ccc(C(C)(C)C)cc4)c(C(F)(F)F)oc23)CC1`: 812 nM; for `Nc1c2c(nc3ccc(NC(=O)c4ccc([N+](=O)[O-])cc4)cc13)CCCC2`: 237 nM; for `Cc1ccc(Oc2ccc(NC(=O)CNc3ccccc3N3CCCC3=O)cc2)cc1`: 366 nM.
The same measure for `CC(C)C[C@H](NC(=O)c1ccc(OCCN2CCOCC2)cc1)C(=O)N[C@H](/C=N/N(C)C(=O)c1ccccc1)CCc1ccccc1`: 269 nM; for `C[C@@H](COc1ccc(-c2ccccc2)cc1)CON1C(N)=NC(N)=NC1(C)C`: 3.2 nM; for `CCCN(CCCN(CCCN(CCC)C(C)C)c1cc(C)nc(Nc2ccc(Cl)cc2)n1)C(C)C`: 113 nM.
For `CC(Cc1ccc(OC2CCCCC2)cc1)NCC(O)c1cccc(Cl)c1` (configuration not stated) the value was 138 nM.
Molecule `CC[C@H]1C[N+]2([O-])CC[C@@H]1C[C@H]2[C@H](O)c1cc(-c2ccccc2)nc2ccc(OC)cc12` returned an XC50 of 840 nM.
The same measure for `CN1CCCc2ccc(NC(=O)c3cnc(-c4ccccc4)cn3)cc21`: 905 nM; for `Cc1ccc(S(=O)(=O)N(CCCNCc2cccc(O)c2)c2ccccc2)cc1`: 767 nM; for `CC(C)N(CC(=O)c1ccc(O)c(C(=O)O)c1)Cc1ccccc1`: 187 nM.
With `CC(C)Cn1c(Sc2ccc(C#N)c([N+](=O)[O-])c2)nnc1-c1cccc(Cl)c1`, the XC50 amounted to 301 nM.
Regarding `Cn1cnc2c(Nc3ccncc3)nc(-c3ccc4ccccc4c3)nc21`, the XC50 worked out at 867 nM.
Take `CC(CN1CCN(C)CC1)C(=O)Nc1ccc(-c2ccc(-c3nc4ccccc4[nH]3)s2)cc1` (configuration not stated): the XC50 came to 638 nM.
`CC(C)CNCc1ccc(-c2cccc(CN(C(=O)Nc3ccccc3)C3CCN(Cc4ccccc4)CC3)c2)cc1` gave an XC50 of 410 nM.
Turning to `Cc1ccc(C(=O)Nc2ccc(C)c(OC3CCN(Cc4ccco4)C3)c2)cc1` (configuration not stated), the XC50 stood at 966 nM.
For `O=C(/C=C/c1ccc(Cl)c(Cl)c1)N1CCC(CN2CCC(c3c[nH]c4ncccc34)CC2)CC1` the value was 1090 nM.
For `Cc1cccc2nc(-c3ccc(-c4ccc(NC(=O)C5CCN(C)CC5)cc4)cc3)[nH]c12` the value was 748 nM; for `CN1CCCC1CCNc1ncc2c(-c3ccc(NC(=O)Nc4cc(C(F)(F)F)ccc4F)c(F)c3)nn(C)c2n1` (configuration not stated), 287 nM; for `COc1ccc(CCn2c(=N)c(C(=O)NCc3cccnc3)cc3c(=O)n4cccc(C)c4nc32)cc1`, 1400 nM.
As to `N=C(N)c1cccc(-c2cc(-c3cccc(C(=N)N)c3)on2)c1`, the XC50 worked out at 86 nM.
Regarding `COc1ccccc1COc1c(C)nc(N)nc1N`, the XC50 was determined as 706 nM.
The same measure for `CCCCN(CCCC)CCCN(CCCN(CCCC)CCCC)c1cc(C)nc(Nc2ccc(Br)cc2)n1`: 131 nM; for `O=S(=O)(NC1=NCCC1)c1cccc(Nc2nc(C(F)(F)F)nc3ccccc23)c1`: 945 nM; for `COc1ccccc1-c1csc(C(=O)NCC2CCN(Cc3ccc(C(C)(C)C)cc3)C2)c1` (configuration not stated): 1110 nM.
For `CC(=O)Nc1ccc(OCCN(CC(C)(C)C)c2ccc(C#N)c(C(F)(F)F)c2)c(Cl)c1` the value was 493 nM; for `c1ccc(Oc2ccc(Nc3ccnc4cc(-c5ccc(CN6CCNCC6)o5)ccc34)cc2)nc1`, 243 nM.
In the case of `COc1ccc2[nH]ccc(=NN=CC=Cc3ccccc3)c2c1`, the XC50 amounted to 743 nM.
The molecule `COc1ccc2oc(=O)c(C#N)c(O)c2c1` registered an XC50 of 211 nM.
